Results taken from patent US20230085307A1, “PYRIDAZINONE COMPOUND AND HERBICIDE” (NISSAN CHEMICAL CORPORATION, priority 2019, published 2023).

Experiments:
rice flat sedge = test: Test Example 3: herbicidal effect by foliage application, Wagner pot (Table 18, symbol E); format: in vivo, rice flat sedge (Cyperus iria); conditions: 320 g/ha
Outline: (§1)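 Plants were sown in alluvial soil held under 0.1–0.5 cm standing water and grown 14 days in a greenhouse at 25–30 °C. An emulsifiable formulation, water-diluted to the set dose, was then sprayed onto the foliage, and effects were scored three weeks later using previously defined criteria.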

blackgrass [1] = test: Test Example 5: herbicidal effect by foliage application, plastic box (Table 20, symbol J); format: in vivo, blackgrass (Alopecurus myosuroides); conditions: foliage application, 320 g/ha, three weeks after application
Outline: (§2)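 Post-emergence foliar test in sterilized diluvial soil. Compound applied as water-diluted emulsion at a predetermined rate to 14-day-old plants; evaluation at three weeks.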

southern crabgrass [2] = test: Test Example 5: herbicidal effect by foliage application, plastic box (Table 20, symbol F); format: in vivo, southern crabgrass (Digitaria ciliaris); conditions: foliage application, 320 g/ha, three weeks after application
Outline: as §2

windgrass [3] = test: Test Example 5: herbicidal effect by foliage application, plastic box (Table 20, symbol L); format: in vivo, windgrass (Apera spica-venti); conditions: foliage application, 320 g/ha, three weeks after application
Outline: as §2

green foxtail [4] = test: Test Example 5: herbicidal effect by foliage application, plastic box (Table 20, symbol G); format: in vivo, green foxtail (Setaria viridis); conditions: foliage application, 320 g/ha, three weeks after application
Outline: as §2

redroot pigweed [5] = test: Test Example 5: herbicidal effect by foliage application, plastic box (Table 20, symbol N); format: in vivo, redroot pigweed (Amaranthus retroflexus); conditions: foliage application, 320 g/ha, three weeks after application
Outline: as §2

persian speedwell [6] = test: Test Example 4: herbicidal effect by soil treatment (Table 19, symbol R); format: in vivo, Persian speedwell (Veronica persica); conditions: amount of applied herbicide 320 g/ha
Outline: (§3)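 Scoring uses the grading scale of an earlier test, three weeks post-application. Treatment consists of spraying a diluted emulsion formulation across the surface of sterilized diluvial soil in which seeds are buried near 1.5 cm deep; boxes are kept in a greenhouse between 25° C. and 30° C.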

redroot pigweed [7] = test: Test Example 4: herbicidal effect by soil treatment (Table 19, symbol N); format: in vivo, redroot pigweed (Amaranthus retroflexus); conditions: amount of applied herbicide 320 g/ha
Outline: as §3

chickweed [8] = test: Test Example 4: herbicidal effect by soil treatment (Table 19, symbol P); format: in vivo, common chickweed (Stellaria media); conditions: amount of applied herbicide 320 g/ha
Outline: as §3

barnyard grass [9] = test: Test Example 3: herbicidal effect by foliage application, Wagner pot (Table 18, symbol H); format: in vivo, barnyard grass (Echinochloa crus-galli); conditions: 320 g/ha
Outline: as §1

Italian ryegrass [10] = test: Test Example 4: herbicidal effect by soil treatment (Table 19, symbol K); format: in vivo, Italian ryegrass (Lolium multiflorum); conditions: amount of applied herbicide 320 g/ha
Outline: as §3

velvetleaf [11] = test: Test Example 5: herbicidal effect by foliage application, plastic box (Table 20, symbol M); format: in vivo, velvetleaf (Abutilon theophrasti); conditions: foliage application, 320 g/ha, three weeks after application
Outline: as §2

barnyard grass [12] = test: Test Example 5: herbicidal effect by foliage application, plastic box (Table 20, symbol H); format: in vivo, barnyard grass (Echinochloa crus-galli); conditions: foliage application, 320 g/ha, three weeks after application
Outline: as §2

lambsquarters [13] = test: Test Example 4: herbicidal effect by soil treatment (Table 19, symbol O); format: in vivo, lambsquarters (Chenopodium album); conditions: amount of applied herbicide 320 g/ha
Outline: as §3

southern crabgrass [14] = test: Test Example 4: herbicidal effect by soil treatment (Table 19, symbol F); format: in vivo, southern crabgrass (Digitaria ciliaris); conditions: amount of applied herbicide 320 g/ha
Outline: as §3

Italian ryegrass [15] = test: Test Example 5: herbicidal effect by foliage application, plastic box (Table 20, symbol K); format: in vivo, Italian ryegrass (Lolium multiflorum); conditions: foliage application, 320 g/ha, three weeks after application
Outline: as §2

wild oat [16] = test: Test Example 4: herbicidal effect by soil treatment (Table 19, symbol I); format: in vivo, wild oat (Avena fatua); conditions: amount of applied herbicide 320 g/ha
Outline: as §3

velvetleaf [17] = test: Test Example 4: herbicidal effect by soil treatment (Table 19, symbol M); format: in vivo, velvetleaf (Abutilon theophrasti); conditions: amount of applied herbicide 320 g/ha
Outline: as §3

windgrass [18] = test: Test Example 4: herbicidal effect by soil treatment (Table 19, symbol L); format: in vivo, windgrass (Apera spica-venti); conditions: amount of applied herbicide 320 g/ha
Outline: as §3

green foxtail [19] = test: Test Example 4: herbicidal effect by soil treatment (Table 19, symbol G); format: in vivo, green foxtail (Setaria viridis); conditions: amount of applied herbicide 320 g/ha
Outline: as §3

Chinese sprangletop = test: Test Example 3: herbicidal effect by foliage application, Wagner pot (Table 18, symbol D); format: in vivo, chinese sprangletop (Leptochloa chinensis); conditions: 320 g/ha
Outline: as §1

barnyard grass [20] = test: Test Example 4: herbicidal effect by soil treatment (Table 19, symbol H); format: in vivo, barnyard grass (Echinochloa crus-galli); conditions: amount of applied herbicide 320 g/ha
Outline: as §3

persian speedwell [21] = test: Test Example 5: herbicidal effect by foliage application, plastic box (Table 20, symbol R); format: in vivo, Persian speedwell (Veronica persica); conditions: foliage application, 320 g/ha, three weeks after application
Outline: as §2

blackgrass [22] = test: Test Example 4: herbicidal effect by soil treatment (Table 19, symbol J); format: in vivo, blackgrass (Alopecurus myosuroides); conditions: amount of applied herbicide 320 g/ha
Outline: as §3

lambsquarters [23] = test: Test Example 5: herbicidal effect by foliage application, plastic box (Table 20, symbol O); format: in vivo, lambsquarters (Chenopodium album); conditions: foliage application, 320 g/ha, three weeks after application
Outline: as §2

chickweed [24] = test: Test Example 5: herbicidal effect by foliage application, plastic box (Table 20, symbol P); format: in vivo, common chickweed (Stellaria media); conditions: foliage application, 320 g/ha, three weeks after application
Outline: as §2

false cleavers [25] = test: Test Example 4: herbicidal effect by soil treatment (Table 19, symbol Q); format: in vivo, false cleavers (Galium spurium); conditions: amount of applied herbicide 320 g/ha
Outline: as §3

wild oat [26] = test: Test Example 5: herbicidal effect by foliage application, plastic box (Table 20, symbol I); format: in vivo, wild oat (Avena fatua); conditions: foliage application, 320 g/ha, three weeks after application
Outline: as §2

false cleavers [27] = test: Test Example 5: herbicidal effect by foliage application, plastic box (Table 20, symbol Q); format: in vivo, false cleavers (Galium spurium); conditions: foliage application, 320 g/ha, three weeks after application
Outline: as §2

SMILES | herbicidal effect on E (rice flat sedge), rating 0-5 (rice flat sedge) | herbicidal effect grade, J: blackgrass (blackgrass [1]) | herbicidal effect grade, F: southern crabgrass (southern crabgrass [2]) | herbicidal effect grade, L: windgrass (windgrass [3]) | herbicidal effect grade, G: green foxtail (green foxtail [4]) | herbicidal effect grade, N: redroot pigweed (redroot pigweed [5]) | herbicidal effect rating, R: persian speedwell (persian speedwell [6]) | herbicidal effect rating, N: redroot pigweed (redroot pigweed [7]) | herbicidal effect rating, P: chickweed (chickweed [8]) | herbicidal effect on H (barnyard grass), rating 0-5 (barnyard grass [9]) | herbicidal effect rating, K: Italian ryegrass (Italian ryegrass [10]) | herbicidal effect grade, M: velvetleaf (velvetleaf [11]) | herbicidal effect grade, H: barnyard grass (barnyard grass [12]) | herbicidal effect rating, O: lambsquarters (lambsquarters [13]) | herbicidal effect rating, F: southern crabgrass (southern crabgrass [14]) | herbicidal effect grade, K: Italian ryegrass (Italian ryegrass [15]) | herbicidal effect rating, I: wild oat (wild oat [16]) | herbicidal effect rating, M: velvetleaf (velvetleaf [17]) | herbicidal effect rating, L: windgrass (windgrass [18]) | herbicidal effect rating, G: green foxtail (green foxtail [19]) | also measured
COc1c(F)cccc1-c1sc2ccccc2c1-c1c(O)c(C)nn(C)c1=O [1-054] | 4 (Herbicidal rate of 70% or more and less than 90%) | 0 (Herbicidal rate of 5% or less (almost no effect)) | 2 (Herbicidal rate of 20% or more and less than 40%) | 0 (Herbicidal rate of 5% or less (almost no effect)) | 4 (Herbicidal rate of 70% or more and less than 90%) | 5 (Herbicidal rate of 90% or more (almost completely withered)) | 0 (Herbicidal rate of 5% or less (almost no effect)) | 0 (Herbicidal rate of 5% or less (almost no effect)) | 0 (Herbicidal rate of 5% or less (almost no effect)) | 5 (Herbicidal rate of 90% or more (almost completely withered)) | 3 (Herbicidal rate of 40% or more and less than 70%) | 5 (Herbicidal rate of 90% or more (almost completely withered)) | 3 (Herbicidal rate of 40% or more and less than 70%) | 0 (Herbicidal rate of 5% or less (almost no effect)) | 0 (Herbicidal rate of 5% or less (almost no effect)) | 4 (Herbicidal rate of 70% or more and less than 90%) | 0 (Herbicidal rate of 5% or less (almost no effect)) | 0 (Herbicidal rate of 5% or less (almost no effect)) | 0 (Herbicidal rate of 5% or less (almost no effect)) | 0 (Herbicidal rate of 5% or less (almost no effect)) | herbicidal effect on D (Chinese sprangletop), rating 0-5 (Chinese sprangletop): 3 (Herbicidal rate of 40% or more and less than 70%); herbicidal effect rating, H: barnyard grass (barnyard grass [20]): 2 (Herbicidal rate of 20% or more and less than 40%); herbicidal effect grade, R: persian speedwell (persian speedwell [21]): 1 (Herbicidal rate of 5% or more and less than 20%); herbicidal effect rating, J: blackgrass (blackgrass [22]): 3 (Herbicidal rate of 40% or more and less than 70%); herbicidal effect grade, O: lambsquarters (lambsquarters [23]): 5 (Herbicidal rate of 90% or more (almost completely withered)); herbicidal effect grade, P: chickweed (chickweed [24]): 5 (Herbicidal rate of 90% or more (almost completely withered)); herbicidal effect rating, Q: false cleavers (false cleavers [25]): 0 (Herbicidal rate of 5% or less (almost no effect)); herbicidal effect grade, I: wild oat (wild oat [26]): 3 (Herbicidal rate of 40% or more and less than 70%); herbicidal effect grade, Q: false cleavers (false cleavers [27]): 4 (Herbicidal rate of 70% or more and less than 90%)
COc1c(C)cc(-c2sc3ccccc3c2-c2c(O)c(C)nn(C)c2=O)cc1C [1-074] | 5 (Herbicidal rate of 90% or more (almost completely withered)) | 0 (Herbicidal rate of 5% or less (almost no effect)) | 0 (Herbicidal rate of 5% or less (almost no effect)) | 0 (Herbicidal rate of 5% or less (almost no effect)) | 0 (Herbicidal rate of 5% or less (almost no effect)) | 0 (Herbicidal rate of 5% or less (almost no effect)) | 3 (Herbicidal rate of 40% or more and less than 70%) | 0 (Herbicidal rate of 5% or less (almost no effect)) | 0 (Herbicidal rate of 5% or less (almost no effect)) | 3 (Herbicidal rate of 40% or more and less than 70%) | 0 (Herbicidal rate of 5% or less (almost no effect)) | 0 (Herbicidal rate of 5% or less (almost no effect)) | 0 (Herbicidal rate of 5% or less (almost no effect)) | 0 (Herbicidal rate of 5% or less (almost no effect)) | 0 (Herbicidal rate of 5% or less (almost no effect)) | 4 (Herbicidal rate of 70% or more and less than 90%) | 0 (Herbicidal rate of 5% or less (almost no effect)) | 0 (Herbicidal rate of 5% or less (almost no effect)) | 0 (Herbicidal rate of 5% or less (almost no effect)) | 0 (Herbicidal rate of 5% or less (almost no effect)) | herbicidal effect on D (Chinese sprangletop), rating 0-5 (Chinese sprangletop): 0 (Herbicidal rate of 5% or less (almost no effect)); herbicidal effect rating, H: barnyard grass (barnyard grass [20]): 0 (Herbicidal rate of 5% or less (almost no effect)); herbicidal effect grade, R: persian speedwell (persian speedwell [21]): 5 (Herbicidal rate of 90% or more (almost completely withered)); herbicidal effect rating, J: blackgrass (blackgrass [22]): 0 (Herbicidal rate of 5% or less (almost no effect)); herbicidal effect grade, O: lambsquarters (lambsquarters [23]): 0 (Herbicidal rate of 5% or less (almost no effect)); herbicidal effect grade, P: chickweed (chickweed [24]): 5 (Herbicidal rate of 90% or more (almost completely withered)); herbicidal effect rating, Q: false cleavers (false cleavers [25]): 0 (Herbicidal rate of 5% or less (almost no effect)); herbicidal effect grade, I: wild oat (wild oat [26]): 0 (Herbicidal rate of 5% or less (almost no effect)); herbicidal effect grade, Q: false cleavers (false cleavers [27]): 0 (Herbicidal rate of 5% or less (almost no effect))
